“And” between values parts separate entries of the source, which are not always exact repeats. Equal entries are not always repeated. Toxic doses and inconclusive results are not listed.
Tested on: L1210 leukemia ip in BDF1 mice, survival T/C
Assay: NCI In Vivo Anticancer Drug Screen. Data for tumor model L1210 Leukemia (intraperitoneal) in B6D2F1 (BDF1) mice
Conditions: endpoint: mean survival time, higher = longer survival
Method in brief: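 Value reflects the ratio of survival in compound-treated mice to survival in vehicle-treated controls, with both groups carrying the same transplanted tumor.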

[1] = dose: 100.0 mg/kg/injection, schedule: Q01DX009 (ip), vehicle: saline with Tween-80
[2] = dose: 400.0 mg/kg/injection, schedule: Q01DX001 (ip), vehicle: saline
[3] = dose: 100.0 mg/kg/injection, schedule: Q01DX001 (ip), vehicle: saline
[4] = dose: 25.0 mg/kg/injection, schedule: Q04DX003 (ip), vehicle: saline
[5] = dose: 50.0 mg/kg/injection, schedule: Q04DX003 (ip), vehicle: saline
[6] = dose: 100.0 mg/kg/injection, schedule: Q04DX003 (ip), vehicle: saline

Cc1c(NC(=O)Nc2cccc(F)c2)c(=O)n(-c2ccccc2)n1C
T/C [1]: 101 % of control
T/C (dose: 100.0 mg/kg/injection, schedule: Q04DX003 (ip), vehicle: saline with Tween-80): 104 % of control
T/C (dose: 200.0 mg/kg/injection, schedule: Q01DX009 (ip), vehicle: saline with Tween-80): 98 % of control
T/C (dose: 200.0 mg/kg/injection, schedule: Q04DX003 (ip), vehicle: saline with Tween-80): 104 % of control
T/C (dose: 400.0 mg/kg/injection, schedule: Q01DX009 (ip), vehicle: saline with Tween-80): 98 % of control
T/C (dose: 400.0 mg/kg/injection, schedule: Q04DX003 (ip), vehicle: saline with Tween-80): 101 % of control

O=c1[nH]cncc1F
T/C (dose: 264.0 mg/kg/injection, schedule: Q01DX001 (ip), vehicle: saline): 92 % of control
T/C [2]: 100 % of control and 112 % of control

COc1cc(CC#N)cc(OC)c1
T/C (dose: 50.0 mg/kg/injection, schedule: Q01DX009 (ip), vehicle: saline with Tween-80): 102 % of control
T/C [1]: 88 % of control

COc1ccc(/C=C2\NC(=O)NC2=O)cc1
T/C [3]: 98 % of control
T/C (dose: 200.0 mg/kg/injection, schedule: Q01DX001 (ip), vehicle: saline): 93 % of control
T/C [2]: 95 % of control

CNC(C)Cc1ccccc1OC (configuration not stated)
T/C [4]: 103 % of control
T/C [5]: 101 % of control
T/C [6]: 92 % of control

CC(C)(C)c1ccc(C(=O)O)cc1.[Cu+2]
T/C (dose: 2.5 mg/kg/injection, schedule: Q01DX009 (ip), vehicle: Klucel (hydroxypropylcellulose) (HPC)): 109 % of control
T/C (dose: 5.0 mg/kg/injection, schedule: Q01DX009 (ip), vehicle: Klucel (hydroxypropylcellulose) (HPC)): 101 % of control
T/C (dose: 10.0 mg/kg/injection, schedule: Q01DX009 (ip), vehicle: Klucel (hydroxypropylcellulose) (HPC)): 106 % of control
T/C (dose: 20.0 mg/kg/injection, schedule: Q01DX009 (ip), vehicle: Klucel (hydroxypropylcellulose) (HPC)): 101 % of control

c1ccc([P+](Cc2nc3ccccc3[nH]2)(c2ccccc2)c2ccccc2)cc1
T/C (dose: 25.0 mg/kg/injection, schedule: Q01DX009 (ip), vehicle: saline): 92 % of control
T/C [4]: 97 % of control
T/C (dose: 50.0 mg/kg/injection, schedule: Q01DX009 (ip), vehicle: Klucel (hydroxypropylcellulose) (HPC)): 102 % of control
T/C [5]: 92 % of control
T/C (dose: 100.0 mg/kg/injection, schedule: Q01DX009 (ip), vehicle: Klucel (hydroxypropylcellulose) (HPC)): 100 % of control
T/C [6]: 94 % of control

CC(=O)c1cc(N)ccc1SC#N
T/C (dose: 5.0 mg/kg/injection, schedule: Q01DX009 (ip), vehicle: saline with Tween-80): 102 % of control
T/C (dose: 5.0 mg/kg/injection, schedule: Q04DX003 (ip), vehicle: saline with Tween-80): 101 % of control
T/C (dose: 10.0 mg/kg/injection, schedule: Q01DX009 (ip), vehicle: saline with Tween-80): 96 % of control
T/C (dose: 10.0 mg/kg/injection, schedule: Q04DX003 (ip), vehicle: saline with Tween-80): 101 % of control
T/C (dose: 20.0 mg/kg/injection, schedule: Q01DX009 (ip), vehicle: saline with Tween-80): 100 % of control
T/C (dose: 20.0 mg/kg/injection, schedule: Q04DX003 (ip), vehicle: saline with Tween-80): 103 % of control

CCC1CN2CCc3cc(OC)c(OC)cc3C2CC1CC1c2cc(OC)c(OC)cc2CCN1C(=O)C(Cc1c[nH]c2ccccc12)NC(=O)OC(C)(C)C (configuration not stated)
T/C (dose: 4.0 mg/kg/injection, schedule: Q03HX008 (ip), vehicle: saline with Tween-80): 100 % of control
T/C (dose: 4.0 mg/kg/injection, schedule: Q03HX016 (ip), vehicle: saline with Tween-80): 93 % of control
T/C (dose: 4.0 mg/kg/injection, schedule: Q03HX024 (ip), vehicle: saline with Tween-80): 101 % of control
T/C (dose: 8.0 mg/kg/injection, schedule: Q03HX008 (ip), vehicle: saline with Tween-80): 105 % of control
T/C (dose: 8.0 mg/kg/injection, schedule: Q03HX016 (ip), vehicle: saline with Tween-80): 101 % of control
T/C (dose: 8.0 mg/kg/injection, schedule: Q03HX024 (ip), vehicle: saline with Tween-80): 98 % of control
T/C (dose: 16.0 mg/kg/injection, schedule: Q01DX009 (oral), vehicle: saline with Tween-80): 112 % of control
T/C (dose: 16.0 mg/kg/injection, schedule: Q03HX008 (ip), vehicle: saline with Tween-80): 101 % of control
T/C (dose: 16.0 mg/kg/injection, schedule: Q03HX016 (ip), vehicle: saline with Tween-80): 100 % of control
T/C (dose: 16.0 mg/kg/injection, schedule: Q03HX024 (ip), vehicle: saline with Tween-80): 97 % of control
T/C (dose: 32.0 mg/kg/injection, schedule: Q01DX005 (ip), vehicle: saline with Tween-80): 95 % of control
T/C (dose: 32.0 mg/kg/injection, schedule: Q01DX009 (ip), vehicle: saline with Tween-80): 104 % of control
T/C (dose: 32.0 mg/kg/injection, schedule: Q01DX009 (oral), vehicle: saline with Tween-80): 114 % of control
T/C (dose: 32.0 mg/kg/injection, schedule: Q03HX008 (ip), vehicle: saline with Tween-80): 92 % of control
T/C (dose: 32.0 mg/kg/injection, schedule: Q03HX016 (ip), vehicle: saline with Tween-80): 97 % of control
T/C (dose: 32.0 mg/kg/injection, schedule: Q03HX024 (ip), vehicle: saline with Tween-80): 98 % of control
T/C (dose: 32.0 mg/kg/injection, schedule: Q04DX003 (ip), vehicle: saline with Tween-80): 162 % of control
T/C (dose: 37.5 mg/kg/injection, schedule: Q01DX009 (ip), vehicle: saline): 95 % of control
T/C (dose: 64.0 mg/kg/injection, schedule: Q01DX001 (ip), vehicle: saline with Tween-80): 100 % of control
T/C (dose: 64.0 mg/kg/injection, schedule: Q01DX005 (ip), vehicle: saline with Tween-80): 102 % of control
T/C (dose: 64.0 mg/kg/injection, schedule: Q01DX009 (ip), vehicle: saline with Tween-80): 100 % of control
T/C (dose: 64.0 mg/kg/injection, schedule: Q01DX009 (oral), vehicle: saline with Tween-80): 114 % of control
T/C (dose: 64.0 mg/kg/injection, schedule: Q04DX003 (ip), vehicle: saline with Tween-80): 97 % of control
T/C (dose: 64.0 mg/kg/injection, schedule: Q08DX002 (ip), vehicle: saline with Tween-80): 98 % of control
T/C (dose: 75.0 mg/kg/injection, schedule: Q01DX009 (ip), vehicle: saline): 103 % of control
T/C (dose: 89.0 mg/kg/injection, schedule: Q01DX001 (ip), vehicle: saline): 115 % of control
T/C (dose: 128.0 mg/kg/injection, schedule: Q01DX001 (ip), vehicle: saline with Tween-80): 102 % of control
T/C (dose: 128.0 mg/kg/injection, schedule: Q01DX005 (ip), vehicle: saline with Tween-80): 101 % of control
T/C (dose: 128.0 mg/kg/injection, schedule: Q01DX009 (ip), vehicle: saline with Tween-80): 105 % of control
T/C (dose: 128.0 mg/kg/injection, schedule: Q04DX003 (ip), vehicle: saline with Tween-80): 105 % of control
T/C (dose: 128.0 mg/kg/injection, schedule: Q08DX002 (ip), vehicle: saline with Tween-80): 95 % of control
T/C (dose: 256.0 mg/kg/injection, schedule: Q01DX001 (ip), vehicle: saline with Tween-80): 97 % of control
T/C (dose: 256.0 mg/kg/injection, schedule: Q01DX009 (oral), vehicle: saline with Tween-80): 118 % of control
T/C (dose: 256.0 mg/kg/injection, schedule: Q04DX003 (ip), vehicle: saline with Tween-80): 96 % of control
T/C (dose: 256.0 mg/kg/injection, schedule: Q08DX002 (ip), vehicle: saline with Tween-80): 98 % of control
T/C (dose: 300.0 mg/kg/injection, schedule: Q01DX009 (ip), vehicle: saline): 90 % of control
T/C (dose: 512.0 mg/kg/injection, schedule: Q01DX001 (ip), vehicle: saline with Tween-80): 102 % of control
T/C (dose: 512.0 mg/kg/injection, schedule: Q08DX002 (ip), vehicle: saline with Tween-80): 106 % of control

O=C(CC1C=CCC1)NCc1ccccc1 (configuration not stated)
T/C (dose: 75.0 mg/kg/injection, schedule: Q01DX001 (ip), vehicle: saline): 101 % of control
T/C (dose: 150.0 mg/kg/injection, schedule: Q01DX001 (ip), vehicle: saline): 95 % of control
T/C (dose: 300.0 mg/kg/injection, schedule: Q01DX001 (ip), vehicle: saline): 93 % of control

COc1ccc2c3c1OC1C(O)C=CC4C(C2)N(C)CCC341 (configuration not stated)
T/C [3]: 98 % of control

CC12CCC(=O)C=C1CC(Sc1ccc(N(CCCl)CCCl)cc1)C1C2CCC2(C)C(O)CCC12 (configuration not stated)
T/C (dose: 100.0 mg/kg/injection, schedule: Q01DX001 (sc), vehicle: steriod suspending solution): 108 % of control
T/C (dose: 200.0 mg/kg/injection, schedule: Q01DX001 (sc), vehicle: steriod suspending solution): 108 % of control
T/C (dose: 400.0 mg/kg/injection, schedule: Q01DX001 (sc), vehicle: steriod suspending solution): 100 % of control
